According to PubChem BioAssay AID2060624 (Molecular Pharmacology Branch, DTP, NCI, 2025):
pIC50: −log10 of the molar value.

Test system: 217524-143-R1-J4-PDC spheroids with HUVEC/MSC, viability
Test: Anticancer human tumor 217524-143-R1-J4-PDC patient-derived pancreatic carcinoma cell line growth inhibition [CLK]
Settings: for pIC50: curve of first compound; for viability, T/C: stronger effect = lower value
How it was run: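 Patient-derived tumor cells grown as complex spheroids with HUVEC endothelial cells and mesenchymal stem cells, treated with drug combinations. Concentrations descend in half-log steps from near clinical Cmax, or from 10 microM if Cmax unknown.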

[1] = second compound 0.0316 µM, first compound 0.0316 µM
[2] = second compound 0.0316 µM, first compound 0.1 µM
[3] = second compound 0.0316 µM, first compound 0.316 µM
[4] = second compound 0.0316 µM, first compound 1 µM
[5] = second compound 0.0316 µM, first compound 3.16 µM
[6] = second compound 0.0316 µM, first compound 10 µM
[7] = second compound 0.1 µM, first compound 0.0316 µM
[8] = second compound 0.1 µM, first compound 0.1 µM
[9] = second compound 0.1 µM, first compound 0.316 µM
[10] = second compound 0.1 µM, first compound 1 µM
[11] = second compound 0.1 µM, first compound 3.16 µM
[12] = second compound 0.1 µM, first compound 10 µM
[13] = second compound 0.316 µM, first compound 0.0316 µM
[14] = second compound 0.316 µM, first compound 0.1 µM
[15] = second compound 0.316 µM, first compound 0.316 µM
[16] = second compound 0.316 µM, first compound 1 µM
[17] = second compound 0.316 µM, first compound 3.16 µM
[18] = second compound 0.316 µM, first compound 10 µM
[19] = second compound 1 µM, first compound 0.0316 µM
[20] = second compound 1 µM, first compound 0.1 µM
[21] = second compound 1 µM, first compound 0.316 µM
[22] = second compound 1 µM, first compound 1 µM
[23] = second compound 1 µM, first compound 3.16 µM
[24] = second compound 1 µM, first compound 10 µM
[25] = second compound 3.16 µM, first compound 0.0316 µM
[26] = second compound 3.16 µM, first compound 0.1 µM
[27] = second compound 3.16 µM, first compound 0.316 µM
[28] = second compound 3.16 µM, first compound 1 µM
[29] = second compound 3.16 µM, first compound 3.16 µM
[30] = second compound 3.16 µM, first compound 10 µM
[31] = second compound 10 µM, first compound 0.0316 µM
[32] = second compound 10 µM, first compound 0.1 µM
[33] = second compound 10 µM, first compound 0.316 µM
[34] = second compound 10 µM, first compound 1 µM
[35] = second compound 10 µM, first compound 3.16 µM
[36] = second compound 10 µM, first compound 10 µM
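Note: spheroids exposed to agents for seven days before reading.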
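Throughout, for viability, T/C: 100% = DMSO vehicle control viability.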

## COc1cccc2c1C(=O)c1c(O)c3c(c(O)c1C2=O)CC(O)(C(=O)CO)CC3OC1CC(N)C(O)C(C)O1 (stereo unspecified) + CNC(=O)c1ccc(Nc2nc(OC3CCCC3)c3c(-c4ccc5nc(C)oc5c4)c[nH]c3n2)c(OC)c1
Second compound 0.0316 µM
  pIC50: > 7.50
Second compound 0.1 µM
  pIC50: > 7.50
Second compound 0.316 µM
  pIC50: > 7.50
Second compound 1 µM
  pIC50: > 7.50
Second compound 3.16 µM
  pIC50: > 7.50
Second compound 10 µM
  pIC50: > 7.50
[1]
  viability, T/C: 32.9%
[2]
  viability, T/C: 32.3%
[3]
  viability, T/C: 25.3%
[4]
  viability, T/C: 17.2%
[5]
  viability, T/C: 3.45%
[6]
  viability, T/C: 0.92%
[7]
  viability, T/C: 38.2%
[8]
  viability, T/C: 33.7%
[9]
  viability, T/C: 23%
[10]
  viability, T/C: 18.9%
[11]
  viability, T/C: 2.48%
[12]
  viability, T/C: 1.28%
[13]
  viability, T/C: 32.2%
[14]
  viability, T/C: 28.5%
[15]
  viability, T/C: 16.5%
[16]
  viability, T/C: 12.8%
[17]
  viability, T/C: 2.83%
[18]
  viability, T/C: 0.97%
[19]
  viability, T/C: 25.2%
[20]
  viability, T/C: 18.7%
[21]
  viability, T/C: 11.8%
[22]
  viability, T/C: 7.57%
[23]
  viability, T/C: 1.43%
[24]
  viability, T/C: 0.99%
[25]
  viability, T/C: 18.7%
[26]
  viability, T/C: 16%
[27]
  viability, T/C: 13%
[28]
  viability, T/C: 6.9%
[29]
  viability, T/C: 0.62%
[30]
  viability, T/C: 1.17%
[31]
  viability, T/C: 22.2%
[32]
  viability, T/C: 14.7%
[33]
  viability, T/C: 10.7%
[34]
  viability, T/C: 6.9%
[35]
  viability, T/C: 0.98%
[36]
  viability, T/C: 1.5%

## Nc1ccn(C2OC(CO)C(O)C2(F)F)c(=O)n1 (stereo unspecified) + CNC(=O)c1ccc(Nc2nc(OC3CCCC3)c3c(-c4ccc5nc(C)oc5c4)c[nH]c3n2)c(OC)c1
Second compound 0.0316 µM
  pIC50: 7.33
Second compound 0.1 µM
  pIC50: > 7.50
Second compound 0.316 µM
  pIC50: > 7.50
Second compound 1 µM
  pIC50: > 7.50
Second compound 3.16 µM
  pIC50: > 7.50
Second compound 10 µM
  pIC50: > 7.50
[1]
  viability, T/C: 60.1%
[2]
  viability, T/C: 31%
[3]
  viability, T/C: 25.2%
[4]
  viability, T/C: 29.9%
[5]
  viability, T/C: 30.4%
[6]
  viability, T/C: 25.1%
[7]
  viability, T/C: 35.3%
[8]
  viability, T/C: 28.8%
[9]
  viability, T/C: 20.8%
[10]
  viability, T/C: 33.2%
[11]
  viability, T/C: 29%
[12]
  viability, T/C: 28.1%
[13]
  viability, T/C: 28.9%
[14]
  viability, T/C: 25.1%
[15]
  viability, T/C: 18.5%
[16]
  viability, T/C: 23.5%
[17]
  viability, T/C: 20.6%
[18]
  viability, T/C: 21.3%
[19]
  viability, T/C: 24.8%
[20]
  viability, T/C: 17.1%
[21]
  viability, T/C: 13.6%
[22]
  viability, T/C: 19.9%
[23]
  viability, T/C: 13.3%
[24]
  viability, T/C: 14.5%
[25]
  viability, T/C: 21.8%
[26]
  viability, T/C: 18.1%
[27]
  viability, T/C: 11.2%
[28]
  viability, T/C: 13.5%
[29]
  viability, T/C: 14.3%
[30]
  viability, T/C: 11.6%
[31]
  viability, T/C: 23.4%
[32]
  viability, T/C: 18.6%
[33]
  viability, T/C: 12.8%
[34]
  viability, T/C: 10.8%
[35]
  viability, T/C: 13.8%
[36]
  viability, T/C: 11.8%

## O=c1[nH]cc(F)c(=O)[nH]1 + CNC(=O)c1ccc(Nc2nc(OC3CCCC3)c3c(-c4ccc5nc(C)oc5c4)c[nH]c3n2)c(OC)c1
Second compound 0.0316 µM
  pIC50: 6.11
Second compound 0.1 µM
  pIC50: > 7.50
Second compound 0.316 µM
  pIC50: > 7.50
Second compound 1 µM
  pIC50: > 7.50
Second compound 3.16 µM
  pIC50: > 7.50
Second compound 10 µM
  pIC50: > 7.50
[1]
  viability, T/C: 79.9%
[2]
  viability, T/C: 86.3%
[3]
  viability, T/C: 61.6%
[4]
  viability, T/C: 48.3%
[5]
  viability, T/C: 30.7%
[6]
  viability, T/C: 29.1%
[7]
  viability, T/C: 40.4%
[8]
  viability, T/C: 37.5%
[9]
  viability, T/C: 39.4%
[10]
  viability, T/C: 35.6%
[11]
  viability, T/C: 30%
[12]
  viability, T/C: 26.7%
[13]
  viability, T/C: 32.3%
[14]
  viability, T/C: 36.7%
[15]
  viability, T/C: 31.5%
[16]
  viability, T/C: 29.9%
[17]
  viability, T/C: 29.1%
[18]
  viability, T/C: 21.5%
[19]
  viability, T/C: 29.6%
[20]
  viability, T/C: 26.7%
[21]
  viability, T/C: 24.8%
[22]
  viability, T/C: 21.9%
[23]
  viability, T/C: 20.2%
[24]
  viability, T/C: 13.9%
[25]
  viability, T/C: 27%
[26]
  viability, T/C: 30.4%
[27]
  viability, T/C: 21.7%
[28]
  viability, T/C: 23.4%
[29]
  viability, T/C: 18.5%
[30]
  viability, T/C: 13.4%
[31]
  viability, T/C: 23.2%
[32]
  viability, T/C: 27.4%
[33]
  viability, T/C: 22.4%
[34]
  viability, T/C: 22.6%
[35]
  viability, T/C: 17.9%
[36]
  viability, T/C: 13.1%
